Experimental data from patent US11485751B2, “Apramycin derivatives” (WAYNE STATE UNIVERSITY, priority 2017, dated 2022).
≈ marks a conversion by molar mass, not a printed value. Where two headings read alike, the source gives them in different places.

Key:
[1] = tested on: A baum. AG227 APH(3′)-I armA; experiment: Activity against G1405-methylated 16S-rRNA, clinical isolate AG227; assay type: cell-based
Excerpt: (§1) Minimal inhibitory concentrations (MIC) have been determined by broth microdilution assays (CLSI. Methods for Dilution Antimicrobial Susceptibility Tests for Bacteria That Grow Aerobically; Approved Standard—Tenth Edition. CLSI document M07-A10. Wayne, Pa.: Clinical and Laboratory Standards Institute; 2015.).

[2] = tested on: Engineered E. coli pH430 WT; experiment: Activity, engineered E. coli pH430 WT; assay type: cell-based; conditions: wild type
Outline: (§2)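 CLSI M07-A10 broth microdilution method used; values reported are minimal inhibitory concentrations.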

[3] = tested on: SZ380, Mycobacterium smegmatis; experiment: MIC reference strain SZ380; assay type: cell-based; conditions: Mycolicibacterium smegmatis, reference strain; read-out: MIC SZ380 M. smegmatis
Excerpt: as §1
(§3) Table 4 and 5 show the antibacterial activity of the compounds of the invention against bacterial reference strains (table 4) and against representative clinical isolates (table 5).
Legend to Tables: GEN, gentamicin; AMK, amikacin; PLZ, plazomicin; APR, apramycin; AG212, Escherichia coli ATCC25922; AG215, Klebsiella pneumonia; AG220, Pseudomonas aeruginosa ATCC27853; AG225, Acinetobacter baumannii pittii; AG290, Enterobacter cloacae; […], Mycobacterium smegmatis. MICs for AG192 have been determined in the presence of 0.5 μg/mL of ampicillin in the medium to mimic the synergistic effect of aminoglycoside and β-lactam antibiotics combination therapy in the treatment of Enterococcus infections in humans.

[4] = tested on: human cytosolic ribosomes; experiment: in-vitro translation assay, human cytosolic ribosomes; assay type: biochemical
Excerpt: (§4) IC50 values for bacterial, human chimeric, and rabbit reticulocyte ribosomes have been determined by in-vitro translation assays as described previously (Proc. Nat. Ac. Sci USA 2012, 109(27):10984-10989).
(§5) Minimal inhibitory concentrations (MICs, […]) against clinical isolates from Institute of Medical Microbiology, Univ. Zurich, and the IC50 values for bacterial, human mitochondrial and human cytosolic ribosomes are indicated.

[5] = tested on: AG212, Escherichia coli ATCC25922; experiment: MIC reference strain AG212; assay type: cell-based; conditions: Escherichia coli; reference strain ATCC25922; read-out: MIC AG212 E. coli
Outline: (§6)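 MICs by broth microdilution following CLSI M07-A10.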

AG001 E. coli WT = experiment: Antibacterial activity, clinical isolate AG001; assay type: cell-based; parameters: unit not given here
Outline: (§7)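 MICs determined by broth microdilution following CLSI M07-A10 (2015) against clinical isolates.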

[6] = tested on: clinical isolates carrying APH(3′)-III; experiment: MIC broth microdilution, APH(3′)-III; assay type: cell-based; conditions: IMM Univ. Zurich
Excerpt: as §1, §5

[7] = tested on: clinical isolates carrying APH(3′)-VI; experiment: MIC broth microdilution, APH(3′)-VI; assay type: cell-based; conditions: IMM Univ. Zurich
Excerpt: as §1, §5

bacterial ribosomes = experiment: in-vitro translation assay, bacterial ribosomes; assay type: biochemical
Excerpt: as §4, §5

[8] = tested on: Enterob. AG302 AAC(3)-II AAC(6′)-I rmtC; experiment: Activity against G1405-methylated 16S-rRNA, clinical isolate AG302; assay type: cell-based
Excerpt: as §1

[9] = tested on: AG215, Klebsiella pneumonia; experiment: MIC reference strain AG215; assay type: cell-based; conditions: Klebsiella pneumoniae, reference strain; read-out: MIC AG215 K. pneumonia
Outline: as §6

AG173 E. coli AAC(3)-IV = experiment: Antibacterial activity, clinical isolate AG173; assay type: cell-based
Excerpt: as §1, §3

[10] = tested on: E. coli AG153 AAC(3)-II APH(3′)-II rmtB; experiment: Activity against G1405-methylated 16S-rRNA, clinical isolate AG153; assay type: cell-based
Excerpt: as §1

AG031 P. aer. APH(3′)-II = experiment: Antibacterial activity, clinical isolate AG031; assay type: cell-based; parameters: unit not given here
Outline: as §7

[11] = tested on: AG220, Pseudomonas aeruginosa ATCC27853; experiment: MIC reference strain AG220; assay type: cell-based; conditions: Pseudomonas aeruginosa, ATCC27853, reference strain ATCC27853; read-out: MIC AG220 P. aeruginosa
Outline: as §6

[12] = tested on: clinical isolates carrying APH(3′)-II; experiment: MIC broth microdilution, APH(3′)-II; assay type: cell-based; conditions: read-out: MIC APH(3′)-II
Excerpt: as §1, §5

[13] = tested on: AG225, Acinetobacter baumannii pittii; experiment: MIC reference strain AG225; assay type: cell-based; conditions: Acinetobacter baumannii, reference strain; read-out: MIC AG225 A. baumannii
Outline: as §6

[14] = tested on: clinical isolates carrying APH(3′)-I; experiment: MIC broth microdilution, APH(3′)-I; assay type: cell-based; conditions: IMM Univ. Zurich
Excerpt: as §1, §5

AG038 MRSA = experiment: Antibacterial activity, clinical isolate AG038; assay type: cell-based; parameters: unit not given here
Outline: as §7

[15] = tested on: human mitochondrial ribosomes; experiment: in-vitro translation assay, human mitochondrial (human chimeric) ribosomes; assay type: biochemical
Excerpt: as §4, §5

[16] = tested on: clinical isolates carrying AAC(3)-IV; experiment: MIC broth microdilution, AAC(3)-IV; assay type: cell-based; conditions: clinical isolates, IMM Univ. Zurich; AAC(3)-IV; read-out: MIC AAC(3)-IV
Excerpt: as §1, §5
(§8) Minimal inhibitory concentrations (μg/ml) against clinical isolates from Institute of Medical Microbiology, Univ. Zurich, and the IC50 values for bacterial, human mitochondrial and human cytosolic ribosomes are indicated.
(§9) The Minimal inhibitory concentrations (MICs, μg/ml) against clinical isolates from Institute of Medical Microbiology, Univ Zurich, and the IC50 values for bacterial, human mitochondrial and human cytosolic ribosomes are indicated.

[17] = tested on: K. pneum. AG269 AAC(3)-II AAC(6′)-I rmtB; experiment: Activity against G1405-methylated 16S-rRNA, clinical isolate AG269; assay type: cell-based
Excerpt: as §1

[18] = tested on: Engineered E. coli pH424 armA; experiment: Activity against G1405-methylated 16S-rRNA, E. coli pH424 armA; assay type: cell-based
Outline: as §2

[19] = tested on: AG290, Enterobacter cloacae; experiment: MIC reference strain AG290; assay type: cell-based; conditions: Enterobacter cloacae; reference strain; read-out: MIC AG290 E. cloacae
Outline: as §6

WT clinical isolates = experiment: MIC broth microdilution, WT; assay type: cell-based; conditions: read-out: MIC WT, clinical isolates, IMM Univ. Zurich; wild type
Excerpt: as §1, §5, §8, §9

SMILES: CNC1C(O)C2O[C@H](O[C@@H]3C(N)C[C@@H](N)C(O)[C@H]3O[C@@H]3O[C@H](CNCCN)[C@@H](O)[C@H]3O)C(N)C[C@@H]2O[C@@H]1O[C@H]1OC(CO)[C@@H](N)[C@H](O)C1O (stereo partly drawn) [DC214]
- Activity A baum. AG227 APH(3′)-I armA [1]: 4-8
- Activity E. coli pH430 WT [2]: 4
- MIC [3]: 0.25 µg/mL
- IC50 [4]: 85 µM
- MIC [5]: 2 µg/mL
- Antibacterial activity AG001 E. coli WT (AG001 E. coli WT): 2
- MIC [6]: 1 µg/mL (≈ 1.4 µM)
- MIC [7]: 4 µg/mL (≈ 5.6 µM)
- IC50 (bacterial ribosomes): 0.09 µM
- Activity Enterob. AG302 AAC(3)-II AAC(6′)-I rmtC [8]: 1-2
- MIC [9]: 1 µg/mL
- Antibacterial activity AG173 E. coli AAC(3)-IV (AG173 E. coli AAC(3)-IV): 16
- Activity E. coli AG153 AAC(3)-II APH(3′)-II rmtB [10]: 2
- Antibacterial activity AG031 P. aer. APH(3′)-II (AG031 P. aer. APH(3′)-II): 8-16
- MIC [11]: 8 µg/mL
- MIC ([12]; clinical isolates, IMM Univ. Zurich, APH(3′)-II): 4 µg/mL (≈ 5.6 µM)
- MIC [13]: 8 µg/mL
- MIC [14]: 2 µg/mL (≈ 2.8 µM)
- Antibacterial activity AG038 MRSA (AG038 MRSA): 4
- IC50 [15]: 178 µM
- MIC [16]: 8 to 16 µg/mL (≈ 11.2 to 22.4 µM)
- Activity K. pneum. AG269 AAC(3)-II AAC(6′)-I rmtB [17]: 2
- Activity E. coli pH424 armA [18]: 2
- MIC [19]: 1 to 2 µg/mL

SMILES: NC[C@@H]1O[C@H](O[C@H]2[C@@H](O)[C@H](O[C@@H]3[C@@H](O)[C@H](N)C[C@H](N)[C@H]3O[C@H]3O[C@H](CO)[C@@H](O)[C@H](O)[C@H]3N)O[C@@H]2CO)[C@H](N)[C@@H](O)[C@@H]1O [paromomycin, reference compound]
- IC50 [4]: 19 µM
- MIC [6]: > 128 µg/mL
- MIC [7]: > 128 µg/mL
- IC50 (bacterial ribosomes): 0.02 µM
- MIC (WT clinical isolates): 1 to 2 µg/mL (≈ 1.62 to 3.25 µM)
- MIC [12]: > 128 µg/mL
- MIC [14]: > 128 µg/mL
- IC50 [15]: 86 µM
- MIC [16]: 128 µg/mL (≈ 208 µM)
